Source: PubChem BioAssay AID1918948 (Molecular Pharmacology Branch, DTP, NCI, 2023)
“And” between values parts separate entries of the source, which are not always exact repeats. Equal values may be shown once.

Tested on: K-562 leukemia growth, % test/control
Experiment: Anticancer human tumor K-562 cell line growth inhibition;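 also: spheroids exposed to compounds for 7 days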;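 as to viability, T/C: 100% = DMSO vehicle wells and lower values mean fewer viable cells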
Conditions: spheroids with HUVEC and MSC; for viability, T/C: stronger effect = lower value
Procedure, shortened: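 Drug combinations with the LSD1 inhibitor iadademstat tested on tumor cells co-cultured as spheroids with endothelial cells and mesenchymal stem cells. Concentrations descended in half-log increments from clinical Cmax or 10 microM.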

[1] = curve of first compound, second compound 0.1 µM
[2] = curve of first compound, second compound 0.316 µM
[3] = curve of first compound, second compound 1 µM
[4] = curve of first compound, second compound 3.16 µM
[5] = curve of first compound, second compound 10 µM
[6] = second compound 0.1 µM, first compound 0.000949 µM
[7] = second compound 0.1 µM, first compound 0.003 µM
[8] = second compound 0.1 µM, first compound 0.00949 µM
[9] = second compound 0.1 µM, first compound 0.03 µM
[10] = second compound 0.1 µM, first compound 0.0949 µM
[11] = second compound 0.1 µM, first compound 0.3 µM
[12] = second compound 0.316 µM, first compound 0.000949 µM
[13] = second compound 0.316 µM, first compound 0.003 µM
[14] = second compound 0.316 µM, first compound 0.00949 µM
[15] = second compound 0.316 µM, first compound 0.03 µM
[16] = second compound 0.316 µM, first compound 0.0949 µM
[17] = second compound 0.316 µM, first compound 0.3 µM
[18] = second compound 1 µM, first compound 0.000949 µM
[19] = second compound 1 µM, first compound 0.003 µM
[20] = second compound 1 µM, first compound 0.00949 µM
[21] = second compound 1 µM, first compound 0.03 µM
[22] = second compound 1 µM, first compound 0.0949 µM
[23] = second compound 1 µM, first compound 0.3 µM
[24] = second compound 3.16 µM, first compound 0.000949 µM
[25] = second compound 3.16 µM, first compound 0.003 µM
[26] = second compound 3.16 µM, first compound 0.00949 µM
[27] = second compound 3.16 µM, first compound 0.03 µM
[28] = second compound 3.16 µM, first compound 0.0949 µM
[29] = second compound 3.16 µM, first compound 0.3 µM
[30] = second compound 10 µM, first compound 0.000949 µM
[31] = second compound 10 µM, first compound 0.003 µM
[32] = second compound 10 µM, first compound 0.00949 µM
[33] = second compound 10 µM, first compound 0.03 µM
[34] = second compound 10 µM, first compound 0.0949 µM
[35] = second compound 10 µM, first compound 0.3 µM

`Nc1ccn(C2OC(CO)C(O)C2(F)F)c(=O)n1` (configuration not stated) + NC1CCC(NC2CC2c2ccccc2)CC1 showed an IC50 [1] of under 0.949 nM, an IC50 [2] of under 0.949 nM and an IC50 [3] of under 0.949 nM. The IC50 [4] was under 0.949 nM, the IC50 [5] was under 0.949 nM and the viability, T/C [6] was 24%. For the same compound, the viability, T/C [7] was 6.98%, the viability, T/C [8] was 5.69% and the viability, T/C [9] was 5.94%. For the same compound, the viability, T/C [10] was 6.11%, the viability, T/C [11] was 5.96% and the viability, T/C [12] was 25.4%. The viability, T/C [13] was 7.37%, the viability, T/C [14] was 5.62% and the viability, T/C [15] was 5.72%. The viability, T/C [16] was 7.48%, the viability, T/C [17] was 6.94% and the viability, T/C [18] was 27.7%. For the same compound, the viability, T/C [19] was 6.4%, the viability, T/C [20] was 5.72% and the viability, T/C [21] was 6.07%. The viability, T/C [22] was 6%, the viability, T/C [23] was 6% and the viability, T/C [24] was 20.3%. It also gave a viability, T/C [25] of 6.36%, a viability, T/C [26] of 6.71% and a viability, T/C [27] of 5.11%. For the same compound, the viability, T/C [28] was 5.57%, the viability, T/C [29] was 5.77% and the viability, T/C [30] was 12.7%. The viability, T/C [31] was 5.54%, the viability, T/C [32] was 5.5% and the viability, T/C [33] was 4.88%. For the same compound, the viability, T/C [34] was 5.09% and the viability, T/C [35] was 5.72%.

In the case of `CC1COCCN1c1cc(-c2ccnn2C)c2ccnc(-c3ccn[nH]3)c2n1` (configuration not stated), the viability, T/C (compound 0.00316 µM) is reported as 88.3% and 28.6%, the viability, T/C (compound 0.01 µM) is reported as 59.4% and 15.3% and the viability, T/C (compound 0.0316 µM) is reported as 19.1% and 3.08%. For the same compound, the viability, T/C (compound 0.1 µM) was 5.33% and 2.16%, the viability, T/C (compound 0.316 µM) was 3.07% and 2.39% and the viability, T/C (compound 1 µM) was 2.84% and 2.02%. For the same compound, the IC50 (curve of compound) was 13.1 nM and < 3.16 nM.

`CC(C)CC(NC(=O)C(Cc1ccccc1)NC(=O)c1cnccn1)B(O)O` (configuration not stated) + NC1CC1c1ccc(-c2cccc(O)c2)cc1 was tested, and the IC50 [1] was 0.585 nM, the IC50 [2] was 0.588 nM and the IC50 [3] was 0.601 nM. For the same compound, the IC50 [4] was 0.576 nM, the IC50 [5] was 0.525 nM and the viability, T/C (second compound 0.1 µM, first compound 0.000316 µM) was 103%. The viability, T/C (second compound 0.1 µM, first compound 0.001 µM) was 3.66%, the viability, T/C (second compound 0.1 µM, first compound 0.00316 µM) was 0.7% and the viability, T/C (second compound 0.1 µM, first compound 0.01 µM) was 0.61%. The viability, T/C (second compound 0.1 µM, first compound 0.0316 µM) was 0.46%, the viability, T/C (second compound 0.1 µM, first compound 0.1 µM) was 0.42% and the viability, T/C (second compound 0.316 µM, first compound 0.000316 µM) was 105%. It also gave a viability, T/C (second compound 0.316 µM, first compound 0.001 µM) of 3.12%, a viability, T/C (second compound 0.316 µM, first compound 0.00316 µM) of 0.63% and a viability, T/C (second compound 0.316 µM, first compound 0.01 µM) of 0.53%. The viability, T/C (second compound 0.316 µM, first compound 0.0316 µM) was 0.48%, the viability, T/C (second compound 0.316 µM, first compound 0.1 µM) was 0.47% and the viability, T/C (second compound 1 µM, first compound 0.000316 µM) was 109%. The viability, T/C (second compound 1 µM, first compound 0.001 µM) was 3.33%, the viability, T/C (second compound 1 µM, first compound 0.00316 µM) was 0.63% and the viability, T/C (second compound 1 µM, first compound 0.01 µM) was 0.53%. It also gave a viability, T/C (second compound 1 µM, first compound 0.0316 µM) of 0.39%, a viability, T/C (second compound 1 µM, first compound 0.1 µM) of 0.56% and a viability, T/C (second compound 3.16 µM, first compound 0.000316 µM) of 102%. For the same compound, the viability, T/C (second compound 3.16 µM, first compound 0.001 µM) was 2.37%, the viability, T/C (second compound 3.16 µM, first compound 0.00316 µM) was 0.61% and the viability, T/C (second compound 3.16 µM, first compound 0.01 µM) was 0.46%. It also gave a viability, T/C (second compound 3.16 µM, first compound 0.0316 µM) of 0.43%, a viability, T/C (second compound 3.16 µM, first compound 0.1 µM) of 0.44% and a viability, T/C (second compound 10 µM, first compound 0.000316 µM) of 87.7%. It also gave a viability, T/C (second compound 10 µM, first compound 0.001 µM) of 2.01%, a viability, T/C (second compound 10 µM, first compound 0.00316 µM) of 0.5% and a viability, T/C (second compound 10 µM, first compound 0.01 µM) of 0.46%. The viability, T/C (second compound 10 µM, first compound 0.0316 µM) was 0.43% and the viability, T/C (second compound 10 µM, first compound 0.1 µM) was 0.39%.

`Nc1ncn(C2CC(O)C(CO)S2)c(=O)n1` (configuration not stated) + NC1CCC(NC2CC2c2ccccc2)CC1 was tested, and the IC50 [1] was 175 nM, the IC50 [2] was 171 nM and the IC50 [3] was 148 nM. It also gave an IC50 [4] of 136 nM, an IC50 [5] of 60 nM and a viability, T/C [6] of 102%. It also gave a viability, T/C [7] of 106%, a viability, T/C [8] of 107% and a viability, T/C [9] of 95.6%. It also gave a viability, T/C [10] of 69%, a viability, T/C [11] of 33.5% and a viability, T/C [12] of 106%. The viability, T/C [13] was 108%, the viability, T/C [14] was 108% and the viability, T/C [15] was 95.7%. The viability, T/C [16] was 68%, the viability, T/C [17] was 33% and the viability, T/C [18] was 108%. For the same compound, the viability, T/C [19] was 110%, the viability, T/C [20] was 107% and the viability, T/C [21] was 94.3%. It also gave a viability, T/C [22] of 65.2%, a viability, T/C [23] of 26.6% and a viability, T/C [24] of 108%. For the same compound, the viability, T/C [25] was 111%, the viability, T/C [26] was 106% and the viability, T/C [27] was 89.2%. For the same compound, the viability, T/C [28] was 60.3%, the viability, T/C [29] was 28.4% and the viability, T/C [30] was 102%. For the same compound, the viability, T/C [31] was 107%, the viability, T/C [32] was 95.9% and the viability, T/C [33] was 70.7%. The viability, T/C [34] was 36.5% and the viability, T/C [35] was 18.6%.
